This passage reports IC50 and EC50 results from patent US9072734B2, “Quaternary ammonium salt compounds” (Teijin Pharma Limited, priority 2009, dated 2015).

Each structure is given as a SMILES string. Counter-ions that a name gives are not always drawn.

T1 sequence (P20309 whole entry): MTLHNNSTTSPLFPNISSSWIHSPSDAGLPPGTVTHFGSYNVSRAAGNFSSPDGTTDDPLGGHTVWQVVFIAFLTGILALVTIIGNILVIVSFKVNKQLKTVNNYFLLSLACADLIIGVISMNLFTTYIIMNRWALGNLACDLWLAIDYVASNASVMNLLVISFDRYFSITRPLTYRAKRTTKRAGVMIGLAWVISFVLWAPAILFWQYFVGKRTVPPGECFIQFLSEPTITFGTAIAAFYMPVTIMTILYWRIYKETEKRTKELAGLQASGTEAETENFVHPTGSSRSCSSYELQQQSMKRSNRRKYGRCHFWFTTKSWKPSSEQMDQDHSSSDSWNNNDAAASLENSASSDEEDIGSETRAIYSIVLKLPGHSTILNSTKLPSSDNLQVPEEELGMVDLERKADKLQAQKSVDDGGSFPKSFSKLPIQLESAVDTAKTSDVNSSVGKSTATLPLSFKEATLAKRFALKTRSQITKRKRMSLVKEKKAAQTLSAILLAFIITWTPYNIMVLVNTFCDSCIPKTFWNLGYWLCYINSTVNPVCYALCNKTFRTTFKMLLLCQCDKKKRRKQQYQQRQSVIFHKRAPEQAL

The first experiment addresses T1, human M3 muscarinic receptor (Homo sapiens, UniProt P20309).
T1 construct: expressed in transfected cells; host or cells: CHO-K1
The experiment can be described thus: Inhibitory effect on methacholine-induced calcium influx, FLIPR assay, CHO-K1 cells stably expressing the human M3 muscarinic receptor. In kind it is cell-based. Conditions: inhibition of calcium influx induced by methacholine. From the text:
Muscarinic receptor subtypes (M1, M3 and M5 receptors), which couple to Gq proteins, activate the phospholipase C (PLC) pathway upon agonist binding to the receptor. As a result, the activated PLC hydrolyzes phosphatidyl inositol diphosphate (PIP2) to diacyl glycerol (DAG) and […] (IP3), which in turn generates calcium release from intracellular stores, i.e., endoplasmic and sarcoplasmic reticula. By utilizing FLIPR (Molecular Devices, Inc.) assay in which a calcium sensitive dye (Component A) is used that fluoresces when free calcium binds, the increase in intracellular calcium is measured on the basis of the change in the fluorescence intensity.
Methacholine was added to CHO-K1 cells stably expressing the human M3 muscarinic receptor to induce calcium influx and evaluate the inhibitory effect of test compounds. In the experiment, a FLIPR Calcium assay kit (Molecular Devices, Inc.) was used.
CHO-K1 cells stably expressing the human M3 muscarinic receptor suspended in Ham's F-12 media (Invitrogen, Co.) containing 10% fetal bovine serum (FBS) were seeded into 96-well FLIPR plates at a volume of 100 μL/well. Next day, 60 μL/well of Non-wash-dye solution (Hank's buffered salt solution, HBSS, containing 20 mM HEPES and 6.5 mM probenecid) was added to the cells, which were then incubated for an hour at 37° C. in the presence of 5% carbon dioxide. 20 μL of 10 concentrations of test compound solutions (HBSS containing 1% DMSO, 20 mM HEPES, 2.5 mM probenecid and 0.05% bovine serum albumin, BSA) prepared at concentrations in a range of 0.01-1000 nM with 2-fold serial dilution) were added, followed by incubation for 180 seconds. Then, 20 μL of 30 nM methacholine solution (HBSS containing 20 mM HEPES, 2.5 mM probenecid and 0.05% bovine serum albumin, BSA) was added, and fluorescence intensity was traced by the intracellular calcium influx measuring device FLIPR 96 (Molecular Devices, Inc.) for 170 seconds. The difference between the lowest and the highest values of the fluorescence intensity (FI) over the period of the measurement was used as a measured value. The percentages of inhibition by the test compounds were calculated according to the following formula from the measured value of the methacholin-added and test compound non-added sample (FIpositive), the measured value of the methacholin non-added and test compound non-added sample (FInegative), and the measured value of the methacholin-added and test compound-added sample (FItest). (%) Percentage of inhibition by test compound=[(1−(FItest−FInegative)/(FIpositive−FInegative)]×100
The 50% inhibitory concentrations (IC50 values) of test compounds were analyzed by a four-parameter logistic model using XLfit4 (IDBS, Ltd.) for the percentage of the inhibition by different concentrations of test compounds.
By IC50 is commonly meant the concentration that gives 50% inhibition. Turning to `C[N+]1(C)CCC(OC(=O)Nc2cc(CCC(=O)Nc3ccc(CCCNC[C@H](O)c4ccc(O)c5[nH]c(=O)ccc45)cc3)ccc2-c2ccccc2)CC1` [Example 62, 4-({[5-(2-{[4-(3-{[(2R)-2-hydroxy-2-(8-hydroxy-2-oxo-1,2-dihydroquinolin-5-yl)ethyl]amino}propyl)phenyl]carbamoyl}ethyl)-2-phenylphenyl]carbamoyl}oxy)-1,1-dimethylpiperidin-1-ium trifluoroacetate], the IC50 was 51.3 nM.

The target in a further experiment is T2, human β2 adrenergic receptor (Homo sapiens, UniProt P07550).
T2 construct: expressed in transfected cells; host or cells: CHO-K1
T2 sequence (P07550 whole entry): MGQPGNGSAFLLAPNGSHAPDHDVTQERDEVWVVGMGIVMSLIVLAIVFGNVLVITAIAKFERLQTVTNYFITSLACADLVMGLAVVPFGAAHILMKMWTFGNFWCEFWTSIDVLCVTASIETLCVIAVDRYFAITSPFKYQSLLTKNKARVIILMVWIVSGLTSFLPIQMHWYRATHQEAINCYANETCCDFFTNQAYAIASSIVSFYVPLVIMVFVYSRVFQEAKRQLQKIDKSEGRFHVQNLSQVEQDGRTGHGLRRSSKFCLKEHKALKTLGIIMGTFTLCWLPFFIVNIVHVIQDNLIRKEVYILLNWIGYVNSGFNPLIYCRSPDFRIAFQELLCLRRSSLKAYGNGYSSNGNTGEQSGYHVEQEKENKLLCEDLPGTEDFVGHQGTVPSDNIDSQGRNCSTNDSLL
The experiment can be described thus: Whole-cell cAMP Flashplate assay using CHO-K1 cells stably expressing human β2 adrenergic receptor. In kind it is cell-based. As to conditions: cAMP production. As for the experimental part:
The β2 adrenergic receptor, which couples to Gs proteins, activates adenylate cyclase upon agonist binding to the receptor. As a result, cAMP is produced in cells. The activation ability of the β2 adrenergic receptor can be measured by measuring the amount of the cAMP with cAMP-Screen System (Applied Biosystems).
CHO-K1 cells expressing the human β2 adrenergic receptor suspended in Ham's F-12 media containing 10% FBS were seeded into 96-well plates at a volume of 100 μL/well. Next day, they were washed with 200 μL PBS(−), to which 80 μL of 0.5 mM IBMX solution (Ham's F-12 media containing 0.05% BSA) was then added, followed by incubation for 20 minutes at 37° C. in the presence of 5% carbon dioxide. 20 μL of 9 concentrations of test compound solutions (0.5 mM IBMX solution containing 1% DMSO) prepared at concentrations in a range of 0.01-1000 nM with 2-fold serial dilution) were added, followed by incubation for 20 minutes at 37° C. in the presence of 5% carbon dioxide. Then, 100 μL of Assay/Lysis Buffer (a reagent that comes with cAMP Screen System) was added. The cells were lysed by pipetting, further incubated for 30 minutes at 37° C., and then frozen at −80° C. After several days, samples, thawed at room temperature, were treated according to the protocol of cAMP Screen System, and then chemiluminescence was measured by EnVision (PerkinElmer, Inc.). The amount of cAMP was calculated from the standard curve for the standard attached to cAMP Screen System.
The concentrations of a test compound at which 50% of its maximal effect is reached (EC50 values) were analyzed by a four-parameter logistic model using XLfit4 (IDBS, Ltd.) for the amounts of cAMP production at different concentrations of the test compounds.
(Changes in cAMP serve as a functional read-out for many G protein-coupled receptors.)
As a reminder, the EC50 is the concentration giving half of the maximal effect. Lower therefore signals an effect from little substance. In turn, `C[N+]1(C)CCC(OC(=O)Nc2cc(CCC(=O)Nc3ccc(CCCNC[C@H](O)c4ccc(O)c5[nH]c(=O)ccc45)cc3)ccc2-c2ccccc2)CC1` [Example 62, 4-({[5-(2-{[4-(3-{[(2R)-2-hydroxy-2-(8-hydroxy-2-oxo-1,2-dihydroquinolin-5-yl)ethyl]amino}propyl)phenyl]carbamoyl}ethyl)-2-phenylphenyl]carbamoyl}oxy)-1,1-dimethylpiperidin-1-ium trifluoroacetate] showed an EC50 of 1.5 nM.

For the compound `C[N+]1(C)CCC(OC(=O)Nc2cc(OCCOc3ccc(CCNC[C@H](O)c4ccc(O)c5[nH]c(=O)ccc45)cc3)ccc2-c2ccccc2)CC1` [Example 79, 4-{[(5-{2-[4-(2-{[(2R)-2-hydroxy-2-(8-hydroxy-2-oxo-1,2-dihydroquinolin-5-yl)ethyl]amino}ethyl)phenoxy]ethoxy}-2-phenylphenyl)carbamoyl]oxy}-1,1-dimethylpiperidin-1-ium trifluoro acetate], the EC50 stood at 5.8 nM.

`C[N+]1(C)CCC(OC(=O)Nc2cc(CCCC(=O)NCc3ccc(CNC[C@H](O)c4ccc(O)c5[nH]c(=O)ccc45)cc3)ccc2-c2ccccc2)CC1` [Example 66, 4-[({5-[3-({[4-({[(2R)-2-hydroxy-2-(8-hydroxy-2-oxo-1,2-dihydroquinolin-5-yl)ethyl]amino}methyl)phenyl]methyl}carbamoyl)propyl]-2-phenylphenyl}carbamoyl)oxy]-1,1-dimethylpiperidin-1-ium trifluoroacetate]: the EC50 was determined as 12.6 nM.

`C[N+]1(C)CCC(OC(=O)Nc2cc(C(=O)OCCCCCCCNCC(O)c3ccc(O)c4[nH]c(=O)ccc34)ccc2-c2ccccc2)CC1` [Example 75, 4-{[5-({[(7-{[(2R)-2-hydroxy-2-(8-hydroxy-2-oxo-1,2-dihydroquinolin-5-yl)ethyl]amino}heptyl)oxy]carbonyl}-2-phenylphenyl)carbamoyl]oxy}-1,1-dimethylpiperidin-1-ium trifluoro acetate] showed an EC50 of 0.5 nM.

`C[N+]1(C)CCC(OC(=O)Nc2cc(CCC(=O)NCCCCCNC[C@H](O)c3ccc(O)c4[nH]c(=O)ccc34)ccc2-c2ccccc2)CC1` [Example 74, 4-({[5-(2-{[5-{[(2R)-2-hydroxy-2-(8-hydroxy-2-oxo-1,2-dihydroquinolin-5-yl)ethyl]amino}pentyl]carbamoyl}ethyl)-2-phenylphenyl]carbamoyl}oxy)-1,1-dimethylpiperidin-1-ium trifluoroacetate] came in with an EC50 of 4.5 nM.

For the compound `C[N+]1(C)[C@@H]2CC(OC(=O)Nc3cc(CCCC(=O)Nc4ccc5cc(CNC[C@H](O)c6ccc(O)c7[nH]c(=O)ccc67)ccc5c4)ccc3-c3ccccc3)C[C@H]1[C@@H]1O[C@@H]12` (stereo partly drawn) [Example 35, (1R,2R,4S,5S,7S)-7-({[5-(3-{[6-({[(2R)-2-hydroxy-2-(8-hydroxy-2-oxo-1,2-dihydroquinolin-5-yl)ethyl]amino}methyl)naphthalen-2-yl]carbamoyl}propyl)-2-phenylphenyl]carbamoyl}oxy)-9,9-dimethyl-3-oxa-9-azatricyclo[3.3.1.0^2,4]nonan-9-ium trifluoroacetate], the midpoint of the response, the EC50, lay at 2.7 nM.

Turning to `C[N+]1(C)CCC(OC(=O)Nc2cc(OCCCCCCCCCNC[C@H](O)c3ccc(O)c4[nH]c(=O)ccc34)ccc2-c2ccccc2)CC1` [Example 60, 4-[({5-[(9-{[(2R)-2-hydroxy-2-(8-hydroxy-2-oxo-1,2-dihydroquinolin-5-yl)ethyl]amino}nonyl)oxy]-2-phenylphenyl}carbamoyl)oxy]-1,1-dimethylpiperidin-1-ium trifluoroacetate], the EC50 turned out to be 1.2 nM.

`C[N+]1(C)[C@@H]2CC(OC(=O)Nc3cc(CCC(=O)Nc4ccc5cc(CNC[C@H](O)c6ccc(O)c7[nH]c(=O)ccc67)ccc5c4)ccc3-c3ccccc3)C[C@H]1[C@@H]1O[C@@H]12` (stereo partly drawn) [Example 40, (1R,2R,4S,5S,7S)-7-({[5-(2-{[6-({[(2R)-2-hydroxy-2-(8-hydroxy-2-oxo-1,2-dihydroquinolin-5-yl)ethyl]amino}methyl)naphthalen-2-yl]carbamoyl}ethyl)-2-phenylphenyl]carbamoyl}oxy)-9,9-dimethyl-3-oxa-9-azatricyclo[3.3.1.0^2,4]nonan-9-ium trifluoroacetate] returned an EC50 of 3.4 nM.

Regarding `C[N+]1(C)CCC(OC(=O)Nc2cc(OCCCCCCNC[C@H](O)c3ccc(O)c4[nH]c(=O)ccc34)ccc2-c2ccccc2)CC1` [Example 59, 4-[({5-[(6-{[(2R)-2-hydroxy-2-(8-hydroxy-2-oxo-1,2-dihydroquinolin-5-yl)ethyl]amino}hexyl)oxy]-2-phenylphenyl}carbamoyl)oxy]-1,1-dimethylpiperidin-1-ium trifluoroacetate], a half-maximal effect (EC50) was put at 0.2 nM.

In turn, `C[N+]1(C)CCC(OC(=O)Nc2cc(/C=C/C(=O)Nc3ccc(CNC[C@H](O)c4ccc(O)c5[nH]c(=O)ccc45)cc3)ccc2-c2ccccc2)CC1` [Example 67, 4-[({5-[(1E)-2-{[4-({[(2R)-2-hydroxy-2-(8-hydroxy-2-oxo-1,2-dihydroquinolin-5-yl)ethyl]amino}methyl)phenyl]carbamoyl}-1-ethen-1-yl]-2-phenylphenyl}carbamoyl)oxy]-1,1-dimethylpiperidin-1-ium trifluoroacetate] showed an EC50 of 0.4 nM.

Regarding `C[N+]1(CCOc2ccccc2)CCC(OC(=O)Nc2cc(CCC(=O)Nc3ccc(CNC[C@H](O)c4ccc(O)c5[nH]c(=O)ccc45)cc3)ccc2-c2ccccc2)CC1` (stereo partly drawn) [Example 57, 4-({[5-(2-{[4-({[(2R)-2-hydroxy-2-(8-hydroxy-2-oxo-1,2-dihydroquinolin-5-yl)ethyl]amino}methyl)phenyl]carbamoyl}ethyl)-2-phenylphenyl]carbamoyl}oxy)-1-methyl-1-(2-phenoxyethyl)piperidin-1-ium trifluoro acetate], the EC50 turned out to be 2.7 nM.

Consider `C[N+]1(C)CCC(OC(=O)Nc2cc(CCC(=O)NCc3ccc(CNC[C@H](O)c4ccc(O)c5[nH]c(=O)ccc45)cc3)ccc2-c2ccccc2)CC1` [Example 65, 4-[({5-[2-({[4-({[(2R)-2-hydroxy-2-(8-hydroxy-2-oxo-1,2-dihydroquinolin-5-yl)ethyl]amino}methyl)phenyl]methyl}carbamoyl)ethyl]-2-phenylphenyl}carbamoyl)oxy]-1,1-dimethylpiperidin-1-ium trifluoroacetate], for which the EC50 is 14.5 nM.

The compound `C[N+]1(C)CCC(OC(=O)Nc2cc(OCC(=O)Nc3ccc(CNC[C@H](O)c4ccc(O)c5[nH]c(=O)ccc45)cc3)ccc2-c2ccccc2)CC1` [Example 64, 4-({[5-(2-{[4-({[(2R)-2-hydroxy-2-(8-hydroxy-2-oxo-1,2-dihydroquinolin-5-yl)ethyl]amino}methyl)phenyl]carbamoyl}methoxy)-2-phenylphenyl]carbamoyl}oxy)-1,1-dimethylpiperidin-1-ium trifluoroacetate] gave an EC50 of 38 nM.
